The results in this text go back to patent US6143780A, “N-arylmethylthioanilide compounds useful for the inhibition of the replication of HIV” (Uniroyal Chemical Company, Inc., priority 1999, dated 2000).

The structures appear in SMILES notation. Where “and” joins values, the source holds several entries; their conditions need not be identical. Identical values can stand only once. Like-named read-outs stand apart in the source and are kept apart here.

The assay concerns HIV-1 (IIIB). Kind of assay: inhibition of HIV-1(IIIB) (WT) induced syncytium formation in CEM cells. The assay is classed as cell-based. The following applies: Table 2, day 4 post infection, replicate values, read-out: EC50, Activity Against HIV-1 (IIIB). The text has this: CEM cells were obtained from the American Tissue Cell Culture Collection (Rockville, Md.) . HIV-1 (IIIB) was originally obtained from the culture supernatant of persistently HIV-1-infected H9 cells and was provided by R. C. Gallo and M. Popovic (National Cancer Institute, National Institutes of Health, Bethesda, Md.).
CEM cells were suspended at ≈300,000 cells per ml of culture medium and infected with approximately 100 CCID50 (CCID50 being the 50% cell culture infective dose) of HIV-1(IIIB) (designated as "WT" in Table 3) or one of the HIV-1 RT mutant strains described above. Then 100 μl of the infected cell suspensions was added to 200 μl microtiter plate wells containing 100 μl of appropriate serial (5-fold) dilutions of the test compounds. The inhibitiory effect of the test compounds on HIV-1 induced syncytium formation in CEM cells was examined microscopically on day 4 post infection. The 50% effective concentration (EC50) was defined as the test compound concentration that inhibits syncytium formation in the HIV-1-infected cell cultures by 50%.

Where [1] appears, read: Human immunodeficiency virus 1, IIIB, CCRF-CEM, 96 h.

As usually defined, the EC50 is the concentration that produces a half-maximal response. Regarding `COC(=O)c1sccc1OCc1cc(NC(=S)c2ccoc2C)ccc1Cl` [Compound 74], the concentration for a half-maximal effect (EC50) was 0.27 µM and 0.131 µM and 0.147 µM.
Take `CC(=O)c1ccccc1OCc1cc(NC(=S)c2ccoc2C)ccc1Cl` [Compound 54]: the EC50 was 6.67 µM and 15.3 µM.
The same measure, in the same setting: the result for `CCOc1ccccc1OCc1cc(NC(=S)c2ccoc2C)ccc1Cl` [Compound 36] reads 0.377 µM and 0.124 µM and 0.788 µM.
Regarding `Cc1occc1C(=O)Nc1ccc(Cl)c(CSc2ccccc2F)c1` [Compound 72], the concentration giving a half-maximal response (EC50) is 14.9 µM and 12.1 µM.
Turning to `Cc1occc1C(=O)Nc1ccc(Cl)c(COc2c(F)c(F)cc(F)c2F)c1` [Compound 58], the EC50 was 0.281 µM. Also, under setting [1], the concentration giving a half-maximal response (EC50) stood at 0.475 µM.
Take `Cc1occc1C(=S)Nc1ccc(Cl)c(COc2c(F)c(F)c(F)c(F)c2F)c1` [Compound 59]: the half-maximal effective concentration (EC50) amounted to 0.117 µM. Also, the half-maximal effective concentration (EC50) under setting [1] stood at 0.199 µM.
`Cc1occc1C(=S)Nc1ccc(Cl)c(COc2c(F)c(F)cc(F)c2F)c1` [Compound 60]: the EC50 is 0.0106 µM and 0.00462 µM.
Consider `Cc1occc1C(=S)Nc1ccc(Cl)c(COc2ccccc2)c1` [Compound 2], for which the EC50 was 0.228 µM and 0.161 µM and 0.0986 µM and 0.0676 µM.
Consider `Cc1occc1COc1cc(NC(=O)c2ccoc2C)ccc1Cl` [Compound 82], for which the EC50 was 1.46 µM and 3.15 µM and 2.43 µM.
With `CC(=O)Oc1ccccc1OCc1cc(NC(=S)c2ccoc2C)ccc1Cl` [Compound 33], the EC50 was 1.39 µM and 2.83 µM and 2.67 µM.
As for `Cc1occc1C(=O)Nc1ccc(Cl)c(COc2ccccc2[N+](=O)[O-])c1` [Compound 13], the EC50 is 0.301 µM and 0.208 µM and 0.358 µM.
For the compound `Cc1occc1C(=O)Nc1ccc(Cl)c(COc2ccccc2Br)c1` [Compound 35], the concentration for a half-maximal effect (EC50) was 2.29 µM and 3.14 µM and 1.23 µM.
Turning to `Cc1occc1C(=S)Nc1ccc(Cl)c(OCc2sccc2Br)c1` [Compound 76], the EC50 was determined as 0.0952 µM. In addition, the EC50 under setting [1] came to 0.0861 µM.
In the case of `Cc1occc1C(=S)Nc1ccc(Cl)c(COc2ccccc2-c2ccccc2)c1` [Compound 48], the EC50 is 3.11 µM and 2.75 µM and 5.41 µM.
Take `CC(=NN(C)C)c1ccccc1OCc1cc(NC(=O)c2ccoc2C)ccc1Cl` [Compound 56]: the concentration for a half-maximal effect (EC50) was 2.91 µM and 3.58 µM. Further, under setting [1], the EC50 was 2.23 µM.
As to `Cc1ccccc1OCc1cc(NC(=O)c2ccoc2C)ccc1Cl` [Compound 9], the EC50 was 13.5 µM and 35 µM.
On to `Cc1occc1C(=O)Nc1ccc(Cl)c(OCc2ccccc2F)c1` [Compound 69], for which the concentration for a half-maximal effect (EC50) is 0.359 µM and 0.317 µM and 0.244 µM.
In the case of `CCCOc1ccccc1OCc1cc(NC(=S)c2ccoc2C)ccc1Cl` [Compound 55], the 50% effective concentration (EC50) was 10 µM and 9 µM and 3.73 µM and 4.26 µM.
Consider `Cc1occc1C(=S)Nc1ccc(Cl)c(COc2cccnc2)c1` [Compound 85], for which the EC50 was 0.211 µM. Also, the half-maximal effective concentration (EC50) under setting [1] stood at 0.151 µM.
As for `Cc1occc1C(=O)Nc1ccc(Cl)c(CSc2ccccn2)c1` [Compound 79], the EC50 is 2.83 µM and 2.99 µM and 3.3 µM and 1.65 µM and 0.614 µM.
For `Cc1occc1C(=O)Nc1ccc(Cl)c(COc2c(F)ccc(F)c2F)c1` [Compound 39], the EC50 is 0.102 µM and 0.0507 µM and 0.113 µM.
Regarding `Cc1occc1C(=O)Nc1ccc(Cl)c(COc2ccccc2N)c1` [Compound 52], the EC50 was 13.7 µM and 16.2 µM.
Regarding `Cc1occc1C(=O)Nc1ccc(Br)c(COc2c(F)ccc(F)c2F)c1` [Compound 61], the EC50 under setting [1] was 0.00205 µM.
On to `Cc1occc1C(=O)Nc1ccc(Cl)c(COc2ccc(F)cc2Cl)c1` [Compound 42], for which the EC50 was 4.66 µM and 18.2 µM.
As to `Cc1occc1C(=S)Nc1ccc(Cl)c(CSc2ccccc2F)c1` [Compound 71], the half-maximal effective concentration (EC50) was 0.342 µM and 0.128 µM and 0.396 µM.
Take `Cc1occc1C(=S)Nc1ccc(Cl)c(CSc2ccncc2)c1` [Compound 83]: the half-maximal effective concentration (EC50) is 13.3 µM and 12.1 µM. The concentration giving a half-maximal response (EC50) under setting [1] was found to be 16.5 µM.
Turning to `Cc1occc1C(=S)Nc1ccc(Br)c(COc2ccccc2C(F)(F)F)c1` [Compound 65], the EC50 came out at 0.000281 µM. Further, under setting [1], the EC50 is 0.00029 µM.
In the case of `COC(=O)c1sccc1OCc1cc(NC(=O)c2ccoc2C)ccc1Cl` [Compound 73], the EC50 is 131 µM and 21.2 µM.
As to `COc1cccc(OC)c1OCc1cc(NC(=S)c2ccoc2C)ccc1Cl` [Compound 28], the EC50 is 6.71 µM and 7.56 µM and 19.6 µM and 10.1 µM and 11 µM.
With `Cc1occc1C(=O)Nc1ccc(Cl)c(COc2cccnc2)c1` [Compound 81], the EC50 is 5.5 µM and 3.69 µM.
Same read-out and setting: next, `COC(=O)c1ccccc1OCc1cc(NC(=S)c2ccoc2C)ccc1Cl` [Compound 51]: 1 µM and 0.226 µM and 0.915 µM and 0.568 µM; `Cc1occc1C(=O)Nc1ccc(Cl)c(COc2ccccc2F)c1` [Compound 14]: 0.771 µM and 0.395 µM and 0.255 µM.
Take `CCc1ccccc1OCc1cc(NC(=O)c2ccoc2C)ccc1Cl` [Compound 38]: the EC50 is 2.88 µM and 1.45 µM.
Consider `CCON=Cc1ccccc1OCc1cc(NC(=S)c2ccoc2C)ccc1Cl` [Compound 50], for which the EC50 came to 1.07 µM.
Turning to `Cc1occc1C(=S)Nc1ccc(Cl)c(CS(=O)(=O)c2ccccc2Cl)c1` [Compound 77], the EC50 is 0.251 µM and 0.299 µM and 1.11 µM.
As to `Cc1occc1C(=O)Nc1ccc(Cl)c(COc2ccccc2)c1` [Compound 1], the 50% effective concentration (EC50) is 2.38 µM and 1.55 µM and 4.81 µM.
With `Cc1occc1C(=O)Nc1ccc(Cl)c(OCc2sccc2Br)c1` [Compound 75], the 50% effective concentration (EC50) is 0.588 µM and 1.5 µM and 2.6 µM.
Turning to `Cc1occc1C(=O)Nc1ccc(Cl)c(COc2cccc([N+](=O)[O-])c2)c1` [Compound 26], the 50% effective concentration (EC50) was 4.14 µM and 3.66 µM. Besides, under setting [1], the EC50 turned out to be 4.61 µM.
Turning to `Cc1occc1C(=S)Nc1ccc(Cl)c(COc2ccccc2C=NN(C)C)c1` [Compound 57], the EC50 was 0.214 µM and 0.0766 µM and 0.0792 µM.
Regarding `COc1cccc(F)c1OCc1cc(NC(=O)c2ccoc2C)ccc1Cl` [Compound 31], the concentration for a half-maximal effect (EC50) was 0.0778 µM and 0.124 µM and 0.213 µM.
On the same count and under the same terms, the result for `Cc1occc1C(=O)Nc1ccc(Br)c(COc2ccccc2C(F)(F)F)c1` [Compound 62] reads 0.195 µM and 0.817 µM and 0.552 µM and 0.793 µM and 0.554 µM.
On the same count and under the same terms, the result for `COc1ccccc1OCc1cc(NC(=O)c2ccoc2C)ccc1Cl` [Compound 12] reads 0.488 µM and 0.379 µM and 0.899 µM.
`COc1cccc(F)c1OCc1cc(NC(=O)c2ccoc2C)ccc1Br` [Compound 63]: the EC50 stood at 0.00755 µM. In addition, under setting [1], the EC50 was determined as 0.00745 µM.
As for `Cc1occc1C(=O)Nc1ccc(Cl)c(COc2c(F)cccc2F)c1` [Compound 20], the EC50 is 0.799 µM. Besides, under setting [1], the EC50 was found to be 0.496 µM.
In the case of `Cc1occc1COc1cc(NC(=S)c2ccoc2C)ccc1Cl` [Compound 84], the EC50 is 0.0661 µM and 0.255 µM.
For the compound `Cc1occc1C(=S)Nc1ccc(Cl)c(CSc2ncccn2)c1` [Compound 78], the EC50 is 0.302 µM and 0.696 µM and 0.375 µM.
In the case of `Cc1occc1C(=S)Nc1ccc(Cl)c(COc2ccccc2C(C)(C)C)c1` [Compound 49], the 50% effective concentration (EC50) is 0.384 µM and 0.599 µM and 1.13 µM.
Take `Cc1occc1C(=S)Nc1ccc(Cl)c(CSc2ccccn2)c1` [Compound 80]: the EC50 was found to be 0.15 µM. In addition, under setting [1], the 50% effective concentration (EC50) was 0.218 µM.
Turning to `Cc1occc1C(=O)Nc1ccc(Cl)c(COc2ccc(F)cc2)c1` [Compound 10], the 50% effective concentration (EC50) worked out at 4.26 µM. The EC50 under setting [1] turned out to be 4.15 µM.
On to `Cc1occc1C(=S)Nc1ccc(Cl)c(OCc2ccccc2F)c1` [Compound 70], for which the EC50 worked out at 0.00967 µM. In addition, under setting [1], the EC50 came out at 0.0122 µM.
On to `Cc1occc1C(=O)Nc1ccc(Cl)c(COc2ccccc2C#N)c1` [Compound 29], for which the EC50 was 3.48 µM and 3.4 µM and 3.1 µM and 3.76 µM. Besides, under setting [1], the concentration giving a half-maximal response (EC50) was determined as 3.39 µM.
As to `Cc1occc1C(=O)Nc1ccc(Cl)c(COc2ccccc2C(F)(F)F)c1` [Compound 41], the EC50 was 0.761 µM and 1.11 µM.
